Data taken from patent US7820648B2, “Pyrimidine derivatives for the treatment of abnormal cell growth” (Pfizer Inc, priority 2005, dated 2010).

Compound: CC(=O)N1[C@@H]2CC[C@H]1c1ccc(Nc3ncc(C)c(NC4CC4)n3)cc12
- melting point: 108 to 112 °C
